Results from patent publication US6417159B1 (Queen's University at Kingston, priority 1996, dated 2002).
Several values for one entry are separate records, joined by “and”; a condition that tells them apart may be missing. Identical values can stand only once. Like-named read-outs stand apart in the source and are kept apart here. Where no end group is shown, it is not given here. The star is where a group is joined. 125I = [125I]*

Tests used:
PC12 cells [1] = experiment: Cytotoxicity in PC12 cultures; conditions: concentration of 50 μM
c-fos mRNA = conditions: one-hour exposure
PC12 cells [2] = experiment: NGF-mediated neurite growth by PC12 cells; format: cell-based, rat; conditions: PC12 cells, peptide co-incubated with NGF
Method: PC12 cells or PC12^nnr5 cells (Loeb et al., 1991) were seeded on poly-D-lysine-coated (0.1 mg·ml^−1, overnight) 96-well microculture dishes (Falcon) at approximately 800 cells per well with RPMI with 10% fetal calf serum. Peptides were added to replicate wells 48 hours before, or at the time of, addition of NGF. NGF was prepared by the method of Mobley et al. (1976) and used at 1-2 nM. Other additives were diluted at least 100-fold and added to the wells as described. At various times following incubation at 37° C., 5% CO2, wells were scored for neurite-bearing cells by serial counting of representative circumferences of each well.
A Leitz Diavert inverted microscope with phase optics was used to score neurite growth. For both PC12 cells and sensory neurons, a neurite was scored as such if its calibre from origin to terminal was approximately the same and the length was equal to or greater than 1.5 cell body diameters.

ED8 chick DRG neurons = experiment: NGF-mediated neurite growth by ED8 chick DRG sensory neurons; format: cell-based; conditions: for Neurite growth in control wells: 16-20 hours; for % of Control Response DRG: (peptide with NGF − NGF alone)/(R3 with NGF − NGF alone) ×100, scored at 43, 44 and 48 hours, M ± SEM, n = 3 assays; for Reduction (loss) of biological effect relative to R3 on enhancement of NGF-mediated neurite growth: DRG cells, 40-50 hours in vitro
p65 subunit of NFkB = molecular target: T1, p65 subunit of NFkB (Rattus norvegicus, UniProt Q7TQN4); experiment: Chemical cross-linking of 125I-Y-R3 to 65 kDa species in PC12 soluble extract, displacement by unlabeled peptide; format: binding; conditions: for Displacement of radiolabel from 65 kDa band: 0.5 μM 125I-Y-R3, 150-fold molar excess of unlabeled peptide, densitometric scanning
T1 construct: endogenous in cells; host or cells: PC12 (soluble cell extract)
Method: Y-R3 (5 μg) was labeled with 1 mCi of Na^125I (Amersham) using iodobeads (Pierce) in 50 mM sodium phosphate buffer, as described in Part A. ^125I-Y-R3 (0.5 μM) was incubated with PC12 cell extract (prepared as above) or affinity purified proteins at pH 7.0, with and without a 150-fold molar excess of competing unlabeled peptide for 2 hrs at 4° C. At that time, EDC (Pierce) and NHS (Pierce) were added to a final concentration of 2 mM each and the reaction allowed to proceed for 30 min at room temperature. The reaction was quenched by adding Tris-HCl to a final concentration of 50 mM. An aliquot was removed and mixed with 4 volumes of SDS sample buffer for SDS-PAGE and the remainder subjected to immunoprecipitation.
Cell extract or R3 affinity purified material was incubated for 4 hrs at 4° C. with 5 μl of agarose conjugated goat anti-NFkB p65 (Santa Cruz). The gel was washed at 4° C. with 5×1 ml of HKR containing 1% NP40, followed by a final wash without detergent. SDS reducing sample buffer was added to the gel and the samples were heated at 95° C. for 5 minutes prior to electrophoresis as described above.
To examine the structural specificity of the interaction of R3 peptide with the 65 kDa species, PC12 cell soluble extract was chemically cross-linked with 0.5 μM ^125I-Y-R3 in the absence and presence of a 150-fold molar excess of unlabeled R9 or R10. […] The reaction mixtures were separated by SDS-PAGE, followed by autoradiography.

PC12 cells [3] = format: cell-based, rat
Method: Labeling of all tyrosinated peptides for uptake studies were carried out using IODO-BEADS™ (Pierce). Briefly, 5 μg of the desired peptide was iodinated at pH 7.4, at room temperature, and separated from free iodide by selective elution from a C-18 SEP PAK LIGHT™ (Waters-Millipore) in 80% CH3CN, 1.0% trifluoroacetic acid. The solvent was removed at room temperature under a stream of nitrogen. Specific activity of labeled peptide was 50-65 cpm-pg^−1.
Stock solutions of [^125I]-labeled peptides (final concentration […], specific activity 50-800 cpm·pmol^−1) were prepared in RPMI medium with 10% fetal calf serum. Uptake was initiated by adding the peptide to the cell suspension in RPMI 1640 with 10% fetal calf serum, maintained at 37° C. Cell-associated label was determined by counting the cell pellet obtained by microcentrifuging an aliquot (100 μl containing 1-3×10^5 cells) of the cell suspension through a layer of silicone oil. The silicone oil was 3:1 mixture of dibutyl phthalate:dinonyl phthalate (Fluke Chemie, Switzerland) with a density of 1.027 (Drevon et al., 1977).
The uptake versus were corrected for “adsorption” of peptides to the cell surface at zero time. This was assessed by determining label that remained associated with cells removed immediately after the addition of [^125I]-peptide and washed by 2 cycles of centrifugation at […] for 5 minutes and resuspension in peptide-free tissue culture medium. At the indicated times, cold chase values were obtained by removing an aliquot (500 μl) of the cell suspension for centrifugation at 150×g for 5 minutes, followed by resuspension in its initial volume of RPMI+10% fetal calf serum containing 50 μM (10×original) unlabeled peptide. The cell suspension was then returned at 37° C. for a further 30 minutes. At the end of this time, cell-associated label was determined as above.

[4] = molecular target: T2, p65 subunit of transcription factor NFkB from PC12 cell soluble extract (rat, UniProt Q7TQN4 1-550); experiment: affinity chromatography of PC12 soluble extract on R3 matrix, SDS-PAGE, silver stain
T2 construct: also called NFkB p65; 65 kDa species
Method: PC12 cells were harvested and washed by 3 cycles of resuspension and centrifugation in Ca^2+, Mg^2+-free Gey's Balanced Salt Solution (CMF). […] The column was then washed with 10 bed volumes of homogenizing buffer and 10 bed volumes of detergent-free homogenizing buffer. The bound material was then eluted with 0.5 mg/ml R3 peptide. The eluate was dialyzed (3500 cut off) extensively against 10 mM sodium phosphate pH 7.4 and taken to dryness under reduced pressure on a Speed Vac (Savant).
A soluble extract of PC12 cells was applied to the R3 affinity resin. […] A similar profile was obtained when extracts from "primed" (exposed to 100 ng/ml NGF for 10 days) PC12 cells, PC12^nnr5 cells or ED9 chick brain were used.

[5] = molecular target: T2, p65 subunit of transcription factor …; experiment: chemical cross-linking (EDC/NHS) of 125I-Y-R3 to PC12 soluble extract, SDS-PAGE, autoradiography
Method: (§1) At that time, EDC (Pierce) and NHS (Pierce) were added to a final concentration of 2 mM each and the reaction allowed to proceed for 30 min at room temperature. The reaction was quenched by adding Tris-HCl to a final concentration of 50 mM. An aliquot was removed and mixed with 4 volumes of SDS sample buffer for SDS-PAGE and the remainder subjected to immunoprecipitation.

[6] = molecular target: T2, p65 subunit of transcription factor …; experiment: competition of unlabeled R3 against 125I-Y-R3 cross-linking to the 65 kDa protein
Method: as §1
The p65 subunit of NFkB was detected in PC12 soluble extracts and in the R3-affinity purified material (FIG. 9A). This 65 kDa protein could also be specifically cross-linked to the iodinated probe for the intracellular domain of P75^NTR, the interaction being displaced by a 150-fold molar excess of unlabeled peptide, and the complex immunoprecipitated by antibodies to the transcription factor (FIGS. 9B and […]).

[7] = 10 μM peptide in solution, no additive to culture medium
[8] = time course of association with PC12 cells

T2 sequence (Q7TQN4 whole entry): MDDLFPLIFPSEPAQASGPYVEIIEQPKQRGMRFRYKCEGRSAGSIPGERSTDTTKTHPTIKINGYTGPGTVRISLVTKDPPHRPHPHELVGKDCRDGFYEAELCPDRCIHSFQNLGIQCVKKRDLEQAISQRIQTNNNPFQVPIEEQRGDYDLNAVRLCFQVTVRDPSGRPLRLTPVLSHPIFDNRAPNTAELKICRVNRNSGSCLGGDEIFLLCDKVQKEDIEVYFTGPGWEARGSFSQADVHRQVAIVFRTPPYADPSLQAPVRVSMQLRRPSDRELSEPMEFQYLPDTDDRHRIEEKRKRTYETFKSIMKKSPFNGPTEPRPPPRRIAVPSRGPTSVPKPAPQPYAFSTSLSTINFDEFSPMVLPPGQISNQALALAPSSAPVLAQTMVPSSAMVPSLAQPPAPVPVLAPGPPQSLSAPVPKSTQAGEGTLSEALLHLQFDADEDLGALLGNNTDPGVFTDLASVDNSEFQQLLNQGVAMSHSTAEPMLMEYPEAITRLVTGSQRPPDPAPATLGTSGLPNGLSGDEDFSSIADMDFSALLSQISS
T1 sequence (Q7TQN4 whole entry): as above

mastoparan [MP]
Cytotoxicity, in words (PC12 cells [1]): cytotoxic
Effect on NGF-mediated c-fos mRNA induction, in words (c-fos mRNA): stimulatory effect
Effect on NGF-mediated neurite growth, co-incubation, in words (PC12 cells [2]): did not significantly influence

nerve growth factor [NGF]
Neurite growth in control wells (ED8 chick DRG neurons; NGF 0.04 pM alone): 5.5±2.1
Neurite growth in control wells (ED8 chick DRG neurons; NGF 0.4 pM alone): 14.0±6.1
Neurite growth in control wells (ED8 chick DRG neurons; NGF 4 pM alone): 31.7±8.7
Neurite growth in control wells (ED8 chick DRG neurons; NGF 40 pM alone): 44.8±8.6

LDALLAALRRRQR [R10]
% of Control Response DRG (ED8 chick DRG neurons): 29 ± 4^(5) %
Reduction (loss) of biological effect relative to R3 on enhancement of NGF-mediated neurite growth (ED8 chick DRG neurons): approximately 70%
Displacement of radiolabel from 65 kDa band (p65 subunit of NFkB): 43%

LDALLAALRAIQR [R9]
% of Control Response DRG (ED8 chick DRG neurons): 61 ± 1^(5) %
Reduction (loss) of biological effect relative to R3 on enhancement of NGF-mediated neurite growth (ED8 chick DRG neurons): approximately 40%
Activity relative to R3 in influencing NGF-mediated neurite growth (ED8 chick DRG neurons; in vitro): 50-60% and 61%
Displacement of radiolabel from 65 kDa band (p65 subunit of NFkB): 76%

R4: hybrid: R3 linked via its amino terminus to an 11-amino acid peptide homologue of the inner transmembrane domain of p75^NTR (Sequence ID No. 7) (VVVGLVAYIAFLDALLAALRRIQR)
Cell association resistant to chase (uptake), in words (PC12 cells [3]): did not suggest an uptake process
Time at half-maximal uptake (PC12 cells [3]; [7]): 0 min
Effect on NGF-mediated neurite growth, co-incubation, in words (PC12 cells [2]): did not enhance NGF-mediated neurite growth

Y-R3: tyrosinated peptide analogue of R3, N-terminal tyrosine (Sequence ID No. 6); radio-iodinated for uptake and cross-linking (YLDALLAALRRIQR; also: radio-iodinated)
Uptake at full saturation (PC12 cells [3]): 20 pmol/10^6 cells
Time at half-maximal uptake (PC12 cells [3]; [7]): 30 min
Time at half-maximal uptake (PC12 cells [3]; 10 μM peptide, MgCl2 (10 mM) added to culture medium): 30 min
Time for which label remained resistant to chase by excess unlabeled R3 (PC12 cells [3]; cold chase): up to 50 hours
Time at which uptake was half-maximally saturated (PC12 cells [3]; [8]): 30 min
Time to full saturation of uptake (PC12 cells [3]; [8]): 10 to 20 h
Interaction with 65 kDa species by chemical cross-linking, in words (p65 subunit of NFkB; soluble PC12 extract): interacted specifically

B1: R3 affinity matrix peptide (R3 with six residues added to the N-terminus, coupled to Aminolink agarose) (peptide)
peptide: KAYIAFLDALLAALRRIQR
modifications: also: coupled at pH 7.0 to Aminolink agarose
notes: Immobilised on agarose beads in the assay
binding result [4]: binds

B2: 125I-Y-R3 (R3 peptide with N-terminal tyrosine, radio-iodinated) (peptide)
peptide: Y(125I)LDALLAALRRIQR
notes: Used at 0.5 uM in cross-linking with EDC/NHS; also called tyrosinated peptide analogue of R3; iodinated probe for the intracellular domain of p75NTR
binding result [5]: binds

LDALLAALRRIQR (also called peptide R3; unlabeled R3) [R3 peptide (synthetic peptide identical to rat p75NTR 367-379)]
binding result [6]: binds
